The values that follow come from US10695337B2, “Piperidin-4-yl azetidine derivatives as JAK1 inhibitors” (Incyte Corporation, priority 2010, dated 2020).

Holding throughout (assay type): biochemical
Experiment [1] deals with human JAK1 (a.a. 837-1142). In words: In vitro JAK kinase assay (HTRF, phosphorylation of a biotinylated peptide), JAK1. The following applies: measured at 1 mM ATP; JAK2 IC50 / JAK1 IC50. Summed up:
(§1)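 N-terminally His-tagged catalytic domains, baculovirus-expressed in insect cells and purified, were used as enzyme. Reactions ran 1 hr at room temperature and were stopped with a mix of 45 mM EDTA, 300 nM SA-APC and 6 nM Eu-Py20. The HTRF signal was read after 40 min of antibody binding.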

For experiment [2], the target named is human Jak2 (a.a. 828-1132) (Homo sapiens (Human), UniProt O60674). In words: In vitro JAK kinase assay (HTRF, phosphorylation of a biotinylated peptide), JAK2. The following applies: measured at 1 mM ATP. The method, then:
Compounds herein were tested for inhibitory activity of JAK targets according to the following in vitro assay described in Park et al., Analytical Biochemistry 1999, 269, 94-104. The catalytic domains of human JAK1 (a.a. 837-1142), Jak2 (a.a. 828-1132) and Jak3 (a.a. 781-1124) with an N-terminal His tag were expressed using baculovirus in insect cells and purified. The catalytic activity of JAK1, JAK2 or JAK3 was assayed by measuring the phosphorylation of a biotinylated peptide. The phosphorylated peptide was detected by homogenous time resolved fluorescence (HTRF). […] Reactions were carried out at room temperature for 1 hr and then stopped with 20 μL 45 mM EDTA, 300 nM SA-APC, 6 nM Eu-Py20 in assay buffer (Perkin Elmer, Boston, Mass.). Binding to the Europium labeled antibody took place for 40 minutes and HTRF signal was measured on a Fusion plate reader (Perkin Elmer, Boston, Mass.).

The target of experiment [3] is human JAK1 (a.a. 837-1142) (Homo sapiens, UniProt P23458). In words: In vitro JAK kinase assay (HTRF, phosphorylation of a biotinylated peptide), JAK1. The conditions noted are these: measured at 1 mM ATP. Summed up: as §1

Chain of human Jak2 (a.a. 828-1132) (O60674 828-1132): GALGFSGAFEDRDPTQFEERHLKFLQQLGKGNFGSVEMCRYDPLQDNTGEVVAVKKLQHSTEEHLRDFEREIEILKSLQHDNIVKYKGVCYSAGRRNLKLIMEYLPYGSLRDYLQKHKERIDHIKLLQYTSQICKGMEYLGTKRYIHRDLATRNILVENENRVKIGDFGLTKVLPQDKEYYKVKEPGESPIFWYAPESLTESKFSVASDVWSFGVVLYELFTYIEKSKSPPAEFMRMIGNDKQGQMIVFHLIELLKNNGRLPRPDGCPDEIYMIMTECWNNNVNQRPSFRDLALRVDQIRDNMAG

Consider `CC1CC(N2CC(CC#N)(n3cc(-c4ncnc5[nH]ccc45)cn3)C2)CCN1C(=O)c1cccc(F)c1` (single isomer, unassigned) [Example 149, {1-[1-(3-fluorobenzoyl)-2-methylpiperidin-4-yl]-3-[4-(7H-pyrrolo[2,3-d]pyrimidin-4-yl)-1H-pyrazol-1-yl]azetidin-3-yl}acetonitrile], for which the “IC50 Ratio JAK2/JAK1” value in experiment [1] is listed as 5.0. In addition, the IC50 in experiment [2] fell in the range of 10 to 50 nM.
The like results for `CC1CC(N2CC(CC#N)(n3cc(-c4ncnc5[nH]ccc45)cn3)C2)CCN1C(=O)c1cccc(F)c1` (single isomer, unassigned) [Example 150, {1-[1-(3-fluorobenzoyl)-2-methylpiperidin-4-yl]-3-[4-(7H-pyrrolo[2,3-d]pyrimidin-4-yl)-1H-pyrazol-1-yl]azetidin-3-yl}acetonitrile] were, in that order, 7.0 and at most 10 nM.
On to `CC1CC(N2CC(CC#N)(n3cc(-c4ncnc5[nH]ccc45)cn3)C2)CCN1Cc1ccc(N(C)C)c(C#N)c1F` (single isomer, unassigned) [Example 242, 3-[(4-{3-(cyanomethyl)-3-[4-(7H-pyrrolo[2,3-d]pyrimidin-4-yl)-1H-pyrazol-1-yl]azetidin-1-yl}-2-methylpiperidin-1-yl)methyl]-6-(dimethylamino)-2-fluorobenzonitrile], for which the values for the IC50 in experiment [3] and in experiment [2] were at most 5 nM and 10 to 50 nM, respectively. Besides, the “IC50 Ratio JAK2/JAK1” value in experiment [1] stood at 8.3.
The like results for `CC1CC(N2CC(CC#N)(n3cc(-c4ncnc5[nH]ccc45)cn3)C2)CCN1Cc1ccc(N(C)C)c(C#N)c1F` (single isomer, unassigned) [Example 243, 3-[(4-{3-(cyanomethyl)-3-[4-(7H-pyrrolo[2,3-d]pyrimidin-4-yl)-1H-pyrazol-1-yl]azetidin-1-yl}-2-methylpiperidin-1-yl)methyl]-6-(dimethylamino)-2-fluorobenzonitrile] were, in that order, 20 to 30 nM, above 100 nM and 6.4.
In turn, `N#CCC1(n2cc(-c3ncnc4[nH]ccc34)cn2)CN(C2CCN(C(=O)c3ccc(-c4cccc5cccnc45)c(F)c3)CC2)C1` [Example 132, {1-[1-(3-fluoro-4-quinolin-8-ylbenzoyl)piperidin-4-yl]-3-[4-(7H-pyrrolo[2,3-d]pyrimidin-4-yl)-1H-pyrazol-1-yl]azetidin-3-yl} acetonitrile] had an IC50 in experiment [3] of at most 5 nM. Moreover, in experiment [1], the “IC50 Ratio JAK2/JAK1” value is on record as 5.8.
With `N#CCC1(n2cc(-c3c(F)cnc4[nH]ccc34)cn2)CN(C2CCN(C(=O)c3cnc(C(F)(F)F)cn3)CC2)C1` [Example 354, [3-[4-(5-Fluoro-1H-pyrrolo[2,3-b]pyridin-4-yl)-1H-pyrazol-1-yl]-1-(1-{[5-(trifluoromethyl)pyrazin-2-yl]carbonyl}piperidin-4-yl)azetidin-3-yl]acetonitrile], in experiment [1], the “IC50 Ratio JAK2/JAK1” value is on record as 2.1.
Same read-out and setting: then `CS(=O)(=O)N1CCC(N2CC(CC#N)(n3cc(-c4c(F)cnc5[nH]ccc45)cn3)C2)CC1` [Example 355, {3-[4-(5-Fluoro-1H-pyrrolo[2,3-b]pyridin-4-yl)-1Hpyrazol-1-yl]-1-[1-(methylsulfonyl)piperidin-4-yl]azetidin-3-yl}acetonitrile], with 3.1; and `N#CCC1(n2cc(-c3c(C#N)cnc4[nH]ccc34)cn2)CN(C2CCN(C(=O)c3cc(C(F)(F)F)ncc3F)CC2)C1` [Example 356, 4-[1-(3-(Cyanomethyl)-1-{1-[5-fluoro-2-(trifluoromethyl)isonicotinoyl]piperidin-4-yl}azetidin-3-yl)-1H-pyrazol-4-yl]-1H-pyrrolo[2,3-b]pyridine-5-carbonitrile], with 5.8; and `CS(=O)(=O)N1CCC(N2CC(CC#N)(n3cc(-c4c(C#N)cnc5[nH]ccc45)cn3)C2)CC1` [Example 357, 4-(1-{3-(Cyanomethyl)-1-[1-(methylsulfonyl)piperidin-4-yl]azetidin-3-yl}-1H-pyrazol-4-yl)-1H-pyrrolo[2,3-b]pyridine-5-carbonitrile], with 3.8.
Still for that read-out and setting: the result for `CN(C)Cc1cc(C(=O)N2CCC(N3CC(CC#N)(n4cc(-c5ncnc6[nH]ccc56)cn4)C3)CC2)nc(C(F)(F)F)n1` [Example 370, {1-(1-{[6-[(dimethylamino)methyl]-2-(trifluoromethyl)pyrimidin-4-yl]carbonyl}piperidin-4-yl)-3-[4-(7H-pyrrolo[2,3-d]pyrimidin-4-yl)-1H-pyrazol-1-yl]azetidin-3-yl}acetonitrile] reads 55; that for `CCN(C)Cc1cc(C(=O)N2CCC(N3CC(CC#N)(n4cc(-c5ncnc6[nH]ccc56)cn4)C3)CC2)nc(C(F)(F)F)n1` [Example 374], 50.
Regarding `N#CCC1(n2cc(-c3ncnc4[nH]ccc34)cn2)CN(C2CCN(C(=O)c3cc(CO)nc(C(F)(F)F)n3)CC2)C1` [Example 381, {1-(1-{[6-(hydroxymethyl)-2-(trifluoromethyl)pyrimidin-4-yl]carbonyl}piperidin-4-yl)-3-[4-(7H-pyrrolo[2,3-d]pyrimidin-4-yl)-1H-pyrazol-1-yl]azetidin-3-yl}acetonitrile], the “IC50 Ratio JAK2/JAK1” value in experiment [1] was 20.
With `CCCOC(=O)N1CCC(N2CC(CC#N)(n3cc(-c4ncnc5[nH]ccc45)cn3)C2)CC1` [Example 386, Propyl 4-{3-(cyanomethyl)-3-[4-(7H-pyrrolo[2,3-d]pyrimidin-4-yl)-1H-pyrazol-1-yl]azetidin-1-yl}piperidine-1-carboxylate], the “IC50 Ratio JAK2/JAK1” value in experiment [1] was determined as 7.7.
Regarding `N#CCC1(n2cc(-c3ncnc4[nH]ccc34)cn2)CN(C2CCN(C(=O)OCC3CCC3)CC2)C1` [Example 387, Cyclobutylmethyl 4-{3-(cyanomethyl)-3-[4-(7H-pyrrolo[2,3-d]pyrimidin-4-yl)-1H-pyrazol-1-yl]azetidin-1-yl}piperidine-1-carboxylate], in experiment [1], the “IC50 Ratio JAK2/JAK1” value is reported as 9.7.
The same measure, in the same setting: the result for `CCOC(=O)N1CCC(N2CC(CC#N)(n3cc(-c4ncnc5[nH]ccc45)cn3)C2)CC1` [Example 388, ethyl 4-{3-(cyanomethyl)-3-[4-(7H-pyrrolo[2,3-d]pyrimidin-4-yl)-1H-pyrazol-1-yl]azetidin-1-yl}piperidine-1-carboxylate] reads 7.6; that for `N#CCC1(n2cc(-c3ncnc4[nH]ccc34)cn2)CN(C2CCN(C(=O)OCc3ccccc3)CC2)C1` [Example 389, benzyl 4-{3-(cyanomethyl)-3-[4-(7H-pyrrolo[2,3-d]pyrimidin-4-yl)-1H-pyrazol-1-yl]azetidin-1-yl}piperidine-1-carboxylate], 6.5; that for `CC(C)COC(=O)N1CCC(N2CC(CC#N)(n3cc(-c4ncnc5[nH]ccc45)cn3)C2)CC1` [Example 390, isobutyl 4-{3-(cyanomethyl)-3-[4-(7H-pyrrolo[2,3-d]pyrimidin-4-yl)-1H-pyrazol-1-yl]azetidin-1-yl}piperidine-1-carboxylate], 8.3.
Take `CC1(COC(=O)N2CCC(N3CC(CC#N)(n4cc(-c5ncnc6[nH]ccc56)cn4)C3)CC2)CC1` [Example 392, (1-methylcyclopropyl)methyl 4-{3-(cyanomethyl)-3-[4-(7H-pyrrolo[2,3-d]pyrimidin-4-yl)-1H-pyrazol-1-yl]azetidin-1-yl}piperidine-1-carboxylate]: the “IC50 Ratio JAK2/JAK1” value in experiment [1] came out at 5.6.
The same measure, in the same setting: then `N#CCC1(n2cc(-c3ncnc4[nH]ccc34)cn2)CN(C2CCN(C(=O)OCc3ccc(F)cc3F)CC2)C1` [Example 393, 2,4-difluorobenzyl 4-{3-(cyanomethyl)-3-[4-(7H-pyrrolo[2,3-d]pyrimidin-4-yl)-1H-pyrazol-1-yl]azetidin-1-yl}piperidine-1-carboxylate], with 7.1.
